These results are taken from article PMC10528299, “Targeting FAK/PYK2 with SJP1602 for Anti-Tumor Activity in Triple-Negative Breast Cancer” (Current Issues in Molecular Biology, 2023).

Holding throughout (test): Eurofins kinase profiling
What all share (type): biochemical

One assay deals with T1, FGFR1(h) (Homo sapiens, UniProt P11362).
T1 construct: purchased Eurofins KinaseProfiler
The conditions noted are these: read-out: residual kinase activity FGFR1(h). Put shortly: (§1)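 Protein kinases were run in the KinaseProfiler radiometric format with the test compound at 1 µM, and activity was measured by incorporation of radiolabeled phosphate. The assays followed the provider's standard protocols as part of a 110-kinase panel.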

In a further assay the target is T2, ErbB2(h) (Homo sapiens, UniProt P04626).
T2 construct: purchased Eurofins KinaseProfiler
The conditions noted are these: read-out: residual kinase activity ErbB2(h). The method, boiled down:
as §1

In another assay the target is T3, FGFR2(h) (Homo sapiens, UniProt P21802).
T3 construct: purchased Eurofins KinaseProfiler
The conditions noted are these: read-out: residual kinase activity FGFR2(h). The method, boiled down:
as §1

The target of a further assay is T4, MST3(h) (Homo sapiens, UniProt Q9Y6E0).
T4 construct: purchased Eurofins KinaseProfiler
The conditions noted are these: read-out: residual kinase activity MST3(h). Put shortly: as §1

The target in the next assay is T5, Ron(h) (Homo sapiens, UniProt Q04912).
T5 construct: purchased Eurofins KinaseProfiler
The conditions noted are these: read-out: residual kinase activity Ron(h). The method, boiled down:
as §1

Another assay has as its target T6, Bmx(h) (Homo sapiens, UniProt P51813).
T6 construct: purchased Eurofins KinaseProfiler
T6 sequence (P51813 1-675): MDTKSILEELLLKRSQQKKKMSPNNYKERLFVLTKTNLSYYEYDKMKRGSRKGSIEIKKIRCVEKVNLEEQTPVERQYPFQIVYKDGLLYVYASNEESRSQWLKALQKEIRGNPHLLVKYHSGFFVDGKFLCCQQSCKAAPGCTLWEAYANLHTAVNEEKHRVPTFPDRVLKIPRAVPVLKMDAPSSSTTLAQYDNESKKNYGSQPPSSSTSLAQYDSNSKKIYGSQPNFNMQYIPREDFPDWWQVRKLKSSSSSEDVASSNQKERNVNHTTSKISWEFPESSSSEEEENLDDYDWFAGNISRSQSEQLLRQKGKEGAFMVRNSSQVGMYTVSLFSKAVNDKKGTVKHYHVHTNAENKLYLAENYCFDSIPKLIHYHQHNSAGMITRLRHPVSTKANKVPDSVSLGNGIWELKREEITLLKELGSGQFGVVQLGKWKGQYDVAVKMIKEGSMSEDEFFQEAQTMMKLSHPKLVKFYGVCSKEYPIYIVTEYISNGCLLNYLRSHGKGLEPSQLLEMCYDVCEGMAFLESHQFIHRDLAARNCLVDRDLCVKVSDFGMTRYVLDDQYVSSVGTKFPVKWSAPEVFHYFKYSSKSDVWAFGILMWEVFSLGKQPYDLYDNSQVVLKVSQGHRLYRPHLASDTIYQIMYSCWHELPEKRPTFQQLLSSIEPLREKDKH
The conditions noted are these: read-out: residual kinase activity Bmx(h). Put shortly: as §1

The target in another assay is T7, Flt3(D835Y)(h) (Homo sapiens, UniProt P36888, D835Y).
T7 construct: purchased Eurofins KinaseProfiler
T7 sequence (P36888 27-993 D835Y): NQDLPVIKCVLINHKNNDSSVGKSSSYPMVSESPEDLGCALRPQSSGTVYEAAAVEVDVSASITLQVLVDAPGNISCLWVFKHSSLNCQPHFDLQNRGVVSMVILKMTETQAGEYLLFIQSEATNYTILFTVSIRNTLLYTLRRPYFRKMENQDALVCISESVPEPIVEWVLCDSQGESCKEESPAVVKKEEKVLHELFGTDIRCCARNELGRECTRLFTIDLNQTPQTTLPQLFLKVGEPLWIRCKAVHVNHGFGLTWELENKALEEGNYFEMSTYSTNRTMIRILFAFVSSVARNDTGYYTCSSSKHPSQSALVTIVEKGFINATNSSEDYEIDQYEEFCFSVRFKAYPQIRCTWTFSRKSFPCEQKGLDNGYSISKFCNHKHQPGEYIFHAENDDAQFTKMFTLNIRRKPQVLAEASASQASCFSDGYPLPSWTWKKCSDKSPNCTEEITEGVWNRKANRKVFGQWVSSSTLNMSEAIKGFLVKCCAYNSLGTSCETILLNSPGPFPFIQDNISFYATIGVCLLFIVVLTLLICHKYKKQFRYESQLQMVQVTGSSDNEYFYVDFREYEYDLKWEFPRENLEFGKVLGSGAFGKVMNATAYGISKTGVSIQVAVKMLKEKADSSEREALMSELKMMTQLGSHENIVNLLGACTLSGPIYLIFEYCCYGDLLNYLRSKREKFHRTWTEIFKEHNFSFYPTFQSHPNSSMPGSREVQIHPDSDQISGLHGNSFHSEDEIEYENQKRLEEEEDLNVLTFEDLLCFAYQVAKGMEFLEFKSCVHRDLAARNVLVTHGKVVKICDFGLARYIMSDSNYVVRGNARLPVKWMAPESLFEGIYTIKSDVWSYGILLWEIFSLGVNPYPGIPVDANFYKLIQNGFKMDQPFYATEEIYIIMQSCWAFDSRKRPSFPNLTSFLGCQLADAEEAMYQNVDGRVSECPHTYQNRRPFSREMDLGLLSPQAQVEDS
The conditions noted are these: read-out: residual kinase activity Flt3(D835Y)(h). The method, boiled down: as §1

The target in another assay is T8, TrkC(h) (Homo sapiens, UniProt Q16288).
T8 construct: purchased Eurofins KinaseProfiler
The conditions noted are these: read-out: residual kinase activity TrkC(h). The method, boiled down:
as §1

A further assay deals with T9, PDGFRα(D842V)(h) (Homo sapiens, UniProt P16234, D842V).
T9 construct: purchased Eurofins KinaseProfiler
The conditions noted are these: read-out: residual kinase activity PDGFRα(D842V)(h). The method, boiled down: as §1

In the next assay the target is T10, Abl(h) (Homo sapiens, UniProt P00519).
T10 construct: purchased Eurofins KinaseProfiler
The conditions noted are these: read-out: residual kinase activity Abl(h). The method, boiled down: as §1

Assay [1] has as its target T11, PI3 Kinase (p110a(E542K)/p85a)(h) (Homo sapiens, UniProt P42336, E542K).
T11 construct: purchased Eurofins KinaseProfiler
The conditions noted are these: read-out: residual kinase activity PI3 Kinase (p110a(E542K)/p85a)(h). Put shortly: as §1

Another assay has as its target T12, Abl(T315I)(h) (Homo sapiens, UniProt P00519, T315I).
T12 construct: purchased Eurofins KinaseProfiler
The conditions noted are these: read-out: residual kinase activity Abl(T315I)(h). Put shortly: as §1

A further assay has as its target T13, PKCα(h) (Homo sapiens, UniProt P17252).
T13 construct: purchased Eurofins KinaseProfiler
The conditions noted are these: read-out: residual kinase activity PKCα(h). Put shortly: as §1

A further assay deals with T14, MAPK2(h) (Homo sapiens, UniProt P28482).
T14 construct: purchased Eurofins KinaseProfiler
The conditions noted are these: read-out: residual kinase activity MAPK2(h). The method, boiled down:
as §1

T8 sequence (Q16288 32-839): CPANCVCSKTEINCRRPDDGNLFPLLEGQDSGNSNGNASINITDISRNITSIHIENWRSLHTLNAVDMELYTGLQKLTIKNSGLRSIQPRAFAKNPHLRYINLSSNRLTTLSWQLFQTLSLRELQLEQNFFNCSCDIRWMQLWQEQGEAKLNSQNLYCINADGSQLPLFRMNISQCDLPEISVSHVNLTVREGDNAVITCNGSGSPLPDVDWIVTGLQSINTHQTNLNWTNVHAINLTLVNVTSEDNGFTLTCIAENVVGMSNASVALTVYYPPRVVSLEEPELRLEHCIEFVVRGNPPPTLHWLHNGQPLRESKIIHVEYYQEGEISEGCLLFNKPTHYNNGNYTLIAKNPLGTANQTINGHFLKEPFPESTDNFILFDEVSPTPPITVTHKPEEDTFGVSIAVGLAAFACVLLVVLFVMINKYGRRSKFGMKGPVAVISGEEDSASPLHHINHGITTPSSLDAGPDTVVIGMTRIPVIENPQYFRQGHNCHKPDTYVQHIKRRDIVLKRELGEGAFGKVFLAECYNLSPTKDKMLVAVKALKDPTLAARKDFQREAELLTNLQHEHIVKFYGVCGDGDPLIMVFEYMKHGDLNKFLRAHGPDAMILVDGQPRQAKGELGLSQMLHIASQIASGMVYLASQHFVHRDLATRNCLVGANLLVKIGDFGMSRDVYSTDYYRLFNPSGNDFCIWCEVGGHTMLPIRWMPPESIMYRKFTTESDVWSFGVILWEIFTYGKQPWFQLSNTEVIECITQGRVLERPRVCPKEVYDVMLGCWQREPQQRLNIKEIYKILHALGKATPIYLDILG
T1 sequence (P11362 22-822): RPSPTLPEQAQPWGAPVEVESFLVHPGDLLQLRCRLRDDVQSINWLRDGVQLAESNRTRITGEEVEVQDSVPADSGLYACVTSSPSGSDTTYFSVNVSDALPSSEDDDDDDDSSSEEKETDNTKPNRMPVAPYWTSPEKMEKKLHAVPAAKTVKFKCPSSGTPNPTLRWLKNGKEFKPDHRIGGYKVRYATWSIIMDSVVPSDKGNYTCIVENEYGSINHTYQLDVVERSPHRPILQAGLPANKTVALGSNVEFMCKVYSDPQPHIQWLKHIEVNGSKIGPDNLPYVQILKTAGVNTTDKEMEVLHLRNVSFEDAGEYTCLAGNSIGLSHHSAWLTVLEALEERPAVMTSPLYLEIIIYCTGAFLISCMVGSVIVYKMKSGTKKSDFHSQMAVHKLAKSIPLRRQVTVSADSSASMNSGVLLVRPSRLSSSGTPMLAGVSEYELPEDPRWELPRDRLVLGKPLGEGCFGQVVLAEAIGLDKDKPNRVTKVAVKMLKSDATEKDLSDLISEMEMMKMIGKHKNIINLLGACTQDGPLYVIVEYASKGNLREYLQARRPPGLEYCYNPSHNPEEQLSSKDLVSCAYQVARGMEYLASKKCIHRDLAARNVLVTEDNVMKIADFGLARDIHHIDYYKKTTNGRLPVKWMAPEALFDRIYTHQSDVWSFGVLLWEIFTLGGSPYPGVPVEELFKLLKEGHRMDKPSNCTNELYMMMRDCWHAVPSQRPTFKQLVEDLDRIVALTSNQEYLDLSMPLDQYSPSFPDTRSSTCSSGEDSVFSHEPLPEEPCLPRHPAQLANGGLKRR
T14 sequence (P28482 whole entry): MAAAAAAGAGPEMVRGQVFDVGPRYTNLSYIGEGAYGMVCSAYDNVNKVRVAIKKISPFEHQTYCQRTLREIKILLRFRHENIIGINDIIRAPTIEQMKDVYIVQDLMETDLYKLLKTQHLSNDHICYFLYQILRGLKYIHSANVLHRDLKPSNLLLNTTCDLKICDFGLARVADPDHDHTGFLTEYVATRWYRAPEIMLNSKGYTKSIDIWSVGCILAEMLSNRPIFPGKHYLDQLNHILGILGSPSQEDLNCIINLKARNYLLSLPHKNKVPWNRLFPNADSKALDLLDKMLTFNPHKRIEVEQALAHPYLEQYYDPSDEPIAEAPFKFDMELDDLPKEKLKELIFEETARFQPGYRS
T3 sequence (P21802 22-821): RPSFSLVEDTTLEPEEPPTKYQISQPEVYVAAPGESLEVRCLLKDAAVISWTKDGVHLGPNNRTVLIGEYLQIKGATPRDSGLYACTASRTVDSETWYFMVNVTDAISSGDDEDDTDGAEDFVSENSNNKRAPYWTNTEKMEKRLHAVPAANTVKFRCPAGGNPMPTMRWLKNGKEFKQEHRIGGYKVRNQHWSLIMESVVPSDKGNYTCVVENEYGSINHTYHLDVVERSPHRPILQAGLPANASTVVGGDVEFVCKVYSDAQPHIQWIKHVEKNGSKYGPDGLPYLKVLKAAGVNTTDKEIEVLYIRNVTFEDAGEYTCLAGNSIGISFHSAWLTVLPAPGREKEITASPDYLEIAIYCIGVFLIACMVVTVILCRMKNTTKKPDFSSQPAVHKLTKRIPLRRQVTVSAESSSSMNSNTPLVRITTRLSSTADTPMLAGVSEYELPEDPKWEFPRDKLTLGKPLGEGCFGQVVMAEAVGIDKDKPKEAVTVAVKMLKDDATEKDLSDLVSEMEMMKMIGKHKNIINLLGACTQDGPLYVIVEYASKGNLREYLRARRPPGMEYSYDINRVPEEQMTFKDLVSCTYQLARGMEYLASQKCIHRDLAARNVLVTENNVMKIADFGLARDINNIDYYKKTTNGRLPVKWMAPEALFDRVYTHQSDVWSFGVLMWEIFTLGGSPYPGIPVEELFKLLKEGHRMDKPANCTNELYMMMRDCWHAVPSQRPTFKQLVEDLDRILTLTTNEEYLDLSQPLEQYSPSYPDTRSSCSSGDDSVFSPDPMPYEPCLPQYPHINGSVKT
T4 sequence (Q9Y6E0 whole entry): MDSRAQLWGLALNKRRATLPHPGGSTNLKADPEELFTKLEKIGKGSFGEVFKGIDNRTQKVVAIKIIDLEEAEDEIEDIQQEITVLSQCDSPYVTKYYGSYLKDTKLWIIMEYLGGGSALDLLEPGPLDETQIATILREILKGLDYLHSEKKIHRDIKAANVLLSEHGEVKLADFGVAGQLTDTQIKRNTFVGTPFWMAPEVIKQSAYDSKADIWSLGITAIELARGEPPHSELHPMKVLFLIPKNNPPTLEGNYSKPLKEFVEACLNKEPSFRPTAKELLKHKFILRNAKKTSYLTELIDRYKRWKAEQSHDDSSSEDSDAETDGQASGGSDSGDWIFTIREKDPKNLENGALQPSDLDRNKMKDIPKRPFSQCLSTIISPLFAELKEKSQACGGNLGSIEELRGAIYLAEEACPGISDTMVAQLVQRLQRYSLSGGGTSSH
T11 sequence (P42336 whole entry E542K): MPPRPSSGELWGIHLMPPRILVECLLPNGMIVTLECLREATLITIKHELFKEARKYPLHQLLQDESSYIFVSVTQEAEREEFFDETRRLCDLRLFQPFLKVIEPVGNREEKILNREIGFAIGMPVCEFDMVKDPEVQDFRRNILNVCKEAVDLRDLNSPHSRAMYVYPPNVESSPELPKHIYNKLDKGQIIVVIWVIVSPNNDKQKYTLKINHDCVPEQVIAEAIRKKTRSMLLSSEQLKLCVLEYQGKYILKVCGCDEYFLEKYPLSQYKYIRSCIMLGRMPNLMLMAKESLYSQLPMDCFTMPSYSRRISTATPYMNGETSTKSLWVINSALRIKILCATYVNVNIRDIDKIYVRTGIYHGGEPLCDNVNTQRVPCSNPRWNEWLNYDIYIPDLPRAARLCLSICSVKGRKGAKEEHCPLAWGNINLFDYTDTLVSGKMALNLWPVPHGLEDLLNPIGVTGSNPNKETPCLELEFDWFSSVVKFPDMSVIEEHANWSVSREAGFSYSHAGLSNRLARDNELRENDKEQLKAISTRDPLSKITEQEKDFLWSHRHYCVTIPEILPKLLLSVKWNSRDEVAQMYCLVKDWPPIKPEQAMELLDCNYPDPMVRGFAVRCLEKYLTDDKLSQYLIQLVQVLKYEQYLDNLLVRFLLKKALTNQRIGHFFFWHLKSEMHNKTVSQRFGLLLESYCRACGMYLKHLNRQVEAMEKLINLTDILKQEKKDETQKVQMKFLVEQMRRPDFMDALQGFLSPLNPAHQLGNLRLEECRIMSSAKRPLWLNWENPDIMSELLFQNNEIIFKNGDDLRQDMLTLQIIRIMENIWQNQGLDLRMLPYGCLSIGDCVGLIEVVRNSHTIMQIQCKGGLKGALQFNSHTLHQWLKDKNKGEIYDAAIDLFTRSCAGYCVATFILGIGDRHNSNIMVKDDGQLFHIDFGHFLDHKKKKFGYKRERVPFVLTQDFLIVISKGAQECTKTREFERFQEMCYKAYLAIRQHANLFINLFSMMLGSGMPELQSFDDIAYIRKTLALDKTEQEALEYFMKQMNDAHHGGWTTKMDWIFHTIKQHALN
T11 sequence (P27986 whole entry partner): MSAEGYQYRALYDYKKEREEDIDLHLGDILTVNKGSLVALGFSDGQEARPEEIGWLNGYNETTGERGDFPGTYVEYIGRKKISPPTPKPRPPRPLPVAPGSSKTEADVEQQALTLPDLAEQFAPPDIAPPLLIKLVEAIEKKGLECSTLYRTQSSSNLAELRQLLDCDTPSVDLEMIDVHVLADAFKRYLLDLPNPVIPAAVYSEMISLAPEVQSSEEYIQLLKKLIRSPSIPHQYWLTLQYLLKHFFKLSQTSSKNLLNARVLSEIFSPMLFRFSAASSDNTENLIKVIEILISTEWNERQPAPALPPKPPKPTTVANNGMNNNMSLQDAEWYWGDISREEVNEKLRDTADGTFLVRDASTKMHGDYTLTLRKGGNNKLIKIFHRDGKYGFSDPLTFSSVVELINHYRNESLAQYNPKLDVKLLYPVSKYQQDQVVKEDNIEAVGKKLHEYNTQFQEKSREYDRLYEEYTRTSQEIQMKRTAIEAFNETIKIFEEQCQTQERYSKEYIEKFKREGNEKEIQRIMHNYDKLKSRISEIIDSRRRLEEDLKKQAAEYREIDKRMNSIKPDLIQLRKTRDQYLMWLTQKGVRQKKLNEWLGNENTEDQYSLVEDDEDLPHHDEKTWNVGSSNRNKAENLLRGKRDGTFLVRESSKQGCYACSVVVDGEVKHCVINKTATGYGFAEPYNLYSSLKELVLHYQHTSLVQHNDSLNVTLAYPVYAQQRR

On to `CONC(=O)c1ccccc1Nc1cc(Nc2cc(C)nn2C(C)C)ncc1Cl` [GSK2256098], for which the remaining activity at 1 µM was found to be 109% on FGFR1(h); 94% at ErbB2(h); 98% at FGFR2(h); 102% at MST3(h); 91% at Ron(h); 105% at Bmx(h). For the same molecule, the remaining activity at 1 µM on Flt3(D835Y)(h) worked out at 76%; at TrkC(h) it was 104%; on PDGFRα(D842V)(h), 119%; on Abl(h) it was 99%; in [1], 97%; on Abl(T315I)(h) it was 92%. Besides, the remaining activity at 1 µM is 95% on PKCα(h) and 94% on MAPK2(h).

As for `CNC(=O)c1cccc(C)c1Nc1nc(Nc2ccc(N3CCN(C4C5CC6CC4CC(O)(C6)C5)CC3)cc2OC)ncc1C(F)(F)F` (stereo not drawn) [SJP1602, 2-((2-((4-(4-((2s,5r)-5-hydroxyadamantan-2-yl)piperazin-1-yl)-2-methoxyphenyl)amino)-5-(trifluoromethyl)pyrimidin-4-yl)amino)-N,3-dimethylbenzamide], the remaining activity at 1 µM is 111% at FGFR1(h); 113% at ErbB2(h); 90% at FGFR2(h); 95% at MST3(h); 75% on Ron(h); 84% at Bmx(h). Further, the remaining activity at 1 µM on Flt3(D835Y)(h) was determined as 87%; on TrkC(h) it was 120%; on PDGFRα(D842V)(h), 141%; at Abl(h) it was 76%; in assay [1], 101%; at Abl(T315I)(h) it was 106%. Also, the results for the remaining activity at 1 µM at PKCα(h) and on MAPK2(h) were 100% and 95%, respectively.

As to `CNC(=O)c1ccc(Nc2ncc(C(F)(F)F)c(NCc3nccnc3N(C)S(C)(=O)=O)n2)cc1` [VS-6063, Defactinib], the remaining activity at 1 µM at FGFR1(h) was found to be 43%; on ErbB2(h), 122%; at FGFR2(h), 46%; at MST3(h), 33%; at Ron(h), 72%; at Bmx(h) it was 47%. Besides, the remaining activity at 1 µM amounted to 7% on Flt3(D835Y)(h); 13% on TrkC(h); 87% at PDGFRα(D842V)(h); 57% at Abl(h); 104% in assay [1]; 44% on Abl(T315I)(h). Further, the remaining activity at 1 µM at PKCα(h) turned out to be 92%; on MAPK2(h), 87%.
